Holding throughout (design): key: “+” = active; “−” = inactive; “pr” = promoting
Assay [1] concerns the target T1, Aβ (1-40) (Homo sapiens, UniProt P05067).
T1 construct: Aβ peptide: Aβ (1-40) 95% purity (American Peptide Company, Inc, Sunnyvale, Calif. USA); purchased American Peptide Company, Inc, Sunnyvale, Calif; USA
Kind of assay: thioflavin T fluorescent assay (ThT assay) for fibrillogenesis. The assay is classed as biochemical. To be noted: Aβ (1-40) 20 μM, 5 μM Thioflavin T, pH 7.40, 37° C.; inhibition of fibrillogenesis. From the text: Test compounds were purchased from commercial sources or synthesized and screened by thioflavin T fluorescent assay (“ThT assay”). Alternatively, one could screen test compounds by circular dichroism (“CD”), electron microscopy (“EM”), or mass spectroscopy (“MS”) assays. The MS assay gives data on the ability of compounds to bind to an amyloid protein, whereas the ThT, EM, and CD assays give data on inhibition of fibrillogenesis. The thioflavin T fluorescent assay for fibrillogenesis is based on the principle that the fluorescent dye, thioflavin T, binds specifically to fibrillar, but not to unaggregate Aβ peptide (LeVine III, H., 1993, Protein Science 2:404-410). Upon binding, thioflavin T develops a characteristic fluorescence (Naiki, H., et al., 1996, Lab. Invest. 74: 374-383) which can be easily detected. The dye is believed to interact with the stacked cross-β pleated sheets, the common structural motif of all amyloid (LeVine III, H., 1995, Amyloid: Int. J. Exp. Clin Invest. 2:1.6). Thioflavin T is widely used to assay the effect of compounds on fibrillogenesis of Aβ peptide and other amyloid proteins (Bronfman, P. C., et al., 1995, Neuroscience Lett. 218:201-203). In this assay, test compounds are incubated with a solution of Aβ (1-40) (20 μM) or IAPP (10 μM) containing 5 μM Thioflavin T, in 0.02M Tris/0.02M acetate/0.15M NaCl/0.005% azide/pH 7.40 at 37° C. in sealed 384 well microplates. Readings (ex 430 nm/em 485 nm) are taken at various time intervals with a microplate fluorescence reader. An increase in fluorescence signifies the appearance of amyloid or intermediates in the production of amyloid, as illustrated in the Figures (in general, a compound which inhibits fibrillogenesis produces lower fluorescence in the assay because the fluorescence of ThT is greater when bound to fibrils). Protocol: Aβ peptide: Aβ (1-40) 95% purity (American Peptide Company, Inc, Sunnyvale, Calif. USA) is disaggregated in trifluoroacetic acid and filtered through a […] filter, (Whatman Anotop 25 plus, 0.02 μm, Catalogue no. 6809 4102) in hexafluoroisopropanol (HFIP). Solutions of Aβ (1-40) or IAPP at 600 μm in HFIP are stored at −80° C. Assay mixture: The mixture is prepared as two solutions which are combined upon addition to the 384 well microplate (Corning Costar cat. 3705). i) Solution A consists of test compounds in 0.02M Tris/0.02M acetate/0.15M NaCl/0.01% azide at pH 7.40 or buffer alone (control), ii) Solution B consists of Aβ (1-40) 40 μM or IAPP 20 μM, Thioflavin T […] in 0.02M Tris/0.02M acetate/0.15M NaCl at pH 7.40. This solution is prepared by drying the Aβ peptide under nitrogen and then resuspending this in 0.04M Tris base with 15 minutes sonication. An equal volume of 0.04M acetic acid containing 0.3 M NaCl is added and the solution is adjusted to 7.40±0.02. A small volume of 20 mM Thioflavin T is added to the solution to give a final 5 μM concentration of Thioflavin T. iii) The microplate is loaded with 40 μL of solution A followed by 40 μL of solution B which gives a final 20 μM Aβ (1-40) or 10 μM IAPP, 5 μM Thioflavin T, and a given concentration of test compound in 0.02M Tris/0.02M acetate/0.15M NaCl/0.005% azide, pH 7.40. The plate is sealed and loaded into the microplate fluorescence reader. Fluorescence measurement data analysis: The HTS-7000 Bio Assay Reader, Perkin Elmer, is used to perform kinetic runs of about 1 day. Readings were taken at 15 minute intervals, with one minute shaking before each read. Bandpass filters used were: excitation 430 nm, emission […].

Assay [2] concerns the target T2, Aβ (Homo sapiens, UniProt P05067).
T2 construct: Aβ peptide: Aβ (1-40) 95% purity (American Peptide Company, Inc, Sunnyvale, Calif. USA)
Description: electron microscopy (EM) assay, inhibition of fibrillogenesis. The assay is classed as biochemical. To be noted: soluble Aβ. From the text: (§1) Test compounds were purchased from commercial sources or synthesized and screened by thioflavin T fluorescent assay (“ThT assay”). Alternatively, one could screen test compounds by circular dichroism (“CD”), electron microscopy (“EM”), or mass spectroscopy (“MS”) assays. The MS assay gives data on the ability of compounds to bind to an amyloid protein, whereas the ThT, EM, and CD assays give data on inhibition of fibrillogenesis.
Similarly, in the electron microscopy (“EM”) assay, each sample was sonicated for 1 min to disrupt large clumps before testing. The sample (5-μL aliquot) was placed on freshly cleaved mica and allowed to air dry. The mica was placed in a Balzers High-vacuum, Freeze-Etch Unit (model 301), shadowed with platinum (30° angle), and coated with a carbon film. The replica was removed from the mica by flotation and transferred onto a 300-mesh copper grid. Samples were examined using a Joel 2000 FX transmission electron microscope. […]

The target of assay [3] is T3, Aβ40 (Homo sapiens, UniProt P05067).
T3 construct: 200 μM of a test compound and 20 μM of solubilized Aβ40
Kind of assay: mass spectroscopy (MS) assay, binding to Aβ. To be noted: 200 μM test compound, 20 μM solubilized Aβ40, pH 7.4; ability to bind to Aβ. Here is the method: Test compounds were purchased from commercial sources or synthesized and screened by thioflavin T fluorescent assay (“ThT assay”). Alternatively, one could screen test compounds by circular dichroism (“CD”), electron microscopy (“EM”), or mass spectroscopy (“MS”) assays.
And in the mass spectroscopy (“MS”) assay, samples were prepared as aqueous solutions containing 20% ethanol, 200 μM of a test compound and 20 μM of solubilized Aβ40. The pH value of each sample was adjusted to 7.4 (±0.2) by addition of 0.1% aqueous sodium hydroxide. The solutions were then analyzed by electrospray ionization mass spectroscopy using a Waters ZQ 4000 mass spectrometer. Samples were introduced by direct infusion at a flow-rate of 25 μL/min within 2 hr. after sample preparation. The source temperature was kept at 70° C. and the cone voltage was 20 V for all the analysis. Data were processed using Masslynx 3.5 software.

For assay [4], the target named is T2, Aβ. Description: circular dichroism (CD) assay, inhibition of fibrillogenesis. The assay is classed as biochemical. As to conditions: soluble Aβ, 37° C., 190-240 nm.
Text: as §1
In the circular dichroism (“CD”) assay, samples were transferred to 0.1-cm path-length quartz cuvettes and CD scans were taken using a Jasco J-715 spectropolarimeter. Readings were taken at 37° C., between 190 and 240 nm, with a resolution of 0.1 nm and a bandwidth of 1 nm. […]
(Circular dichroism is widely used to follow secondary structure.)

The values that follow come from patent US20040147531A1, “Amidine derivatives for treating amyloidosis” (priority 2001, published 2004).

Structures are written as SMILES.

T3 sequence (P05067 672-711 limits assumed): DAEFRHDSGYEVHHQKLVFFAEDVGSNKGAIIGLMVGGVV
T1 sequence (P05067 672-711 limits assumed): as above
T2 sequence (P05067 672-711 limits assumed): as above

Consider `c1cc(COc2ccc(C3=NCCN3)cc2)ccc1COc1ccc(C2=NCCN2)cc1` [Compound 27], for which the “ThT Assay” value in assay [1] is given as “pr”.

As to `N=C(N)c1ccc(OCc2cccc(COc3ccc(C(=N)N)cc3)c2)cc1` [Compound 24], the EM entry in assay [2] was “+”. Also, in assay [1], the “ThT Assay” value is listed as “+”. For the same molecule, the “MS Assay” value in assay [3] is “+”.

With `N=C(N)c1ccc(OCCCCOc2ccc(C(=N)N)cc2)cc1` [Compound 5], in assay [1], the “ThT Assay” value is recorded as “+”. Also, the “MS Assay” value in assay [3] was “+”.

For the molecule `N=C(N)c1ccc(-c2cc3ccc(C(=N)N)cc3[nH]2)cc1` [Compound 28], the EM result in assay [2] was “+”. Further, the “ThT Assay” value in assay [1] is listed as “+”. The CD entry in assay [4] is given as “+”.

Turning to `c1cc(COc2ccc(C3=NCCN3)cc2)cc(COc2ccc(C3=NCCN3)cc2)c1` [Compound 25], the EM result in assay [2] was “+”. Further, the “ThT Assay” value in assay [1] is “+”.

On to `CC(C)c1ccc(OCc2ccc(C(=N)N)cc2)cc1` [Compound 70], for which the EM entry in assay [2] is on record as “+”. The “MS Assay” value in assay [3] was “+”. The CD result in assay [4] was “+”.

With `c1cc(C2=NCCN2)ccc1OCCOCCOc1ccc(C2=NCCN2)cc1` [Compound 35], the EM entry in assay [2] is “−”. Further, the “ThT Assay” value in assay [1] is listed as “+”. Also, the “MS Assay” value in assay [3] was “+”.

Turning to `COc1ccc(-c2ccc(-c3ccc(C(=N)N)cc3)o2)cc1` [Compound 117], the EM entry in assay [2] is “+”. In assay [3], the “MS Assay” value is given as “+”. The CD entry in assay [4] is “−”.

In the case of `N=C(N)CCCOc1ccc(C(=N)N)cc1` [Compound 41], the “ThT Assay” value in assay [1] is “+”. In addition, the “MS Assay” value in assay [3] was “+”.

As for `Cl.N=C(N)c1ccccc1` [Compound 46], the EM entry in assay [2] was “−”. Further, the “ThT Assay” value in assay [1] is “−”. In assay [4], the CD entry is listed as “−”.

For `CC(C)NC(=N)c1ccc(OCc2ccc(COc3ccc(C(=N)NC(C)C)cc3)c3ccccc23)cc1` [Compound 62], the EM result in assay [2] is “+”. In assay [3], the “MS Assay” value was “+”. Also, the CD result in assay [4] is “+”.

For the molecule `N=C(N)c1ccc(-c2ccc(-c3nc4ccccc4[nH]3)o2)cc1` [Compound 122], the EM result in assay [2] is “+”. For the same molecule, in assay [3], the “MS Assay” value is recorded as “+”. In assay [4], the CD entry is on record as “+”.

`N=C(N)c1ccc(OCCC(O)COc2ccc(C(=N)N)cc2)cc1` (stereo not shown) [Compound 31]: the EM entry in assay [2] is reported as “−”. Besides, in assay [1], the “ThT Assay” value was “+”. In assay [3], the “MS Assay” value is on record as “+”.

Turning to `N=C(N)c1ccc2nc(-c3ccc(CCc4ccc(-c5nc6ccc(C(=N)N)cc6[nH]5)s4)cc3)[nH]c2c1` [Compound 116], the EM result in assay [2] is “+”. For the same molecule, in assay [3], the “MS Assay” value was “+”. For the same molecule, in assay [4], the CD entry is recorded as “−”.

For `CC(C)NC(=N)c1cccc(COc2cccc3c(OCc4cccc(C(=N)NC(C)C)c4)cccc23)c1` [Compound 60], the EM result in assay [2] is recorded as “−”. The “MS Assay” value in assay [3] is given as “+”. The CD entry in assay [4] is on record as “+”.

For `N=C(N)c1ccc(OCOc2ccc(C(=N)N)cc2)cc1` [Compound 9], the EM entry in assay [2] is reported as “−”. Moreover, the “ThT Assay” value in assay [1] was “+”. The “MS Assay” value in assay [3] is given as “+”. The CD result in assay [4] was “+”.

Regarding `CC(C)NC(=N)c1ccc(COc2cccc3c(OCc4ccc(C(=N)NC(C)C)cc4)cccc23)cc1` [Compound 61], the EM result in assay [2] is on record as “+”. In assay [3], the “MS Assay” value was “+”. The CD entry in assay [4] is “+”.

`N=C(N)c1ccc(OCc2ccc(COc3ccc(C(=N)N)cc3)cc2)cc1` [Compound 26]: the EM result in assay [2] is on record as “−”. Further, the “ThT Assay” value in assay [1] is recorded as “+”.
